# In paper PMC8179049 (Chemical Science, 2020):
# Several values for one entry are separate records, joined by “and”; a condition that tells them apart may be missing. Identical values can stand only once. Like-named read-outs stand apart in the source and are kept apart here.
# Columns and labels:
# [1] = biological target: T1, human AspH (His6-AspH315-758) (Homo sapiens, UniProt Q12797); test: SPE-MS AspH inhibition assay; format: biochemical; conditions: mean ± SD, n = 3
# T1 construct: N-Terminally His6-tagged human AspH315-758 (His6-AspH315-758) was produced in Escherichia coli BL21 (DE3); made in house; host or cells: Escherichia coli BL21 (DE3), pET-28a(+) vector
# T1 sequence (Q12797 315-758): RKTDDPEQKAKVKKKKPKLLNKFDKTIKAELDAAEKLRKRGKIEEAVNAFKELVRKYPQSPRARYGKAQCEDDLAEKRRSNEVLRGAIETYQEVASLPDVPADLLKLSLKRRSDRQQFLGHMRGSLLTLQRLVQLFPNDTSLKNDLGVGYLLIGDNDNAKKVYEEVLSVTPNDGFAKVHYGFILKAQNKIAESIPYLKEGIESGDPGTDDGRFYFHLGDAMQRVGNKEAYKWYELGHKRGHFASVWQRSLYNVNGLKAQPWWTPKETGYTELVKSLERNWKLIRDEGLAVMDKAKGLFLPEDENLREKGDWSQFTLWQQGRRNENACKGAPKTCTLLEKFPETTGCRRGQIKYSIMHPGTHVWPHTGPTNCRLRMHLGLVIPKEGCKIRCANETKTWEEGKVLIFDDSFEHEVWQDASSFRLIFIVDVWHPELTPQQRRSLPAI
# Procedure: 6. Recombinant AspH production and purification
# N-Terminally His6-tagged human AspH315-758 (His6-AspH315-758) was produced in Escherichia coli BL21 (DE3) cells using a pET-28a(+) vector and purified by Ni(II)-affinity chromatography (HisTrap HP column, GE Healthcare; 1 mL/min flow rate) and size-exclusion chromatography (HiLoad 26/60 Superdex 75 pg 300 mL column; 1 mL/min) using an ÄKTA pure machine (GE Healthcare) as previously reported.1,4 AspH was >95% pure by SDS-PAGE and MS analysis and had the anticipated mass (calculated for His6-AspH315-758: 54519 Da, found: 54519 Da).1 Purified AspH was stored in 50 mM HEPES buffer (pH 7.5, 150 mM NaCl) at a concentration of 125 μM at -78 °C; fresh aliquots were used for all AspH assays.
# 7. AspH substrate synthesis
# AspH substrates were designed based on the sequence of EGFD1 of human coagulation factor X (hFX amino acids 86-124), which is a reported cellular AspH substrate.2 All substrates were prepared with a C-terminal amide.
# The hFX-EGFD186-124-4Ser peptide (hFX amino acids 86-124; Supporting Figure S1c),1 used for crystallography experiments, was synthesized by solid phase peptide synthesis (SPPS) and purified by GL Biochem (Shanghai) Ltd (Shanghai, China). The thioether linked cyclic peptide hFX-CP101-119 (hFX amino acids 101-119; Supporting
# Figure S1d), which was used as substrate in AspH SPE-MS assays,4 was synthesized by an intramolecular thioetherification cyclization reaction from the corresponding linear peptide (D-Ala replacing Cys101hFX and Ser replacing Cys112hFX) which was obtained by microwave-assisted solid phase peptide synthesis using the Fmoc-protection strategy as described.4
# 8. AspH inhibition assays […]
# water; ammonium iron(II) sulfate hexahydrate, FAS, (NH 4)2Fe(SO4)2·6H2O: 400 mM in 20 mM HCl diluted to 1 mM in Milli-Q® Ultrapure water) were freshly prepared each day from commercially sourced solids (Sigma […]
# (Greiner) in an approximately three-fold and 11-point dilution series (100 μM top concentration) using an ECHO 550 acoustic dispenser (Labcyte). DMSO and 2,4 -PDCA were used as negative and positive controls , respectively .
# The final DMSO concentration was kept constant at 0.5%v/v throughout all experiments (using the DMSO backfill option of the acoustic dispenser). Each reaction was performed in technical duplicates in adjacent wells of the assay plates; additionally, assays were performed in three independent technical duplicates on different days using different DMSO inhibitor solutions. […]
# dispensed across the inhibitor-containing 384-well assay plates with a multidrop dispenser (ThermoFischer Scientific) at 20°C under an ambient atmosphere. The plates were subsequently centrifuged (1000 rpm, 30 s) and incubated for 15 minutes at 20°C. The Substrate Mixture (25 μL/well), containing 2.0 μM hFX-CP101-119, 200 μM […]
# Note: The multidrop dispenser ensured proper mixing of the Enzyme and the Substrate Mixtures which was essential for assay reproducibility. The plates were centrifuged (1000 rpm, 30 s) and af ter incubating for 7 minutes, […]
# centrifuged (1000 rpm, 60 s) and analysed by MS.
# The mass spectrometer parameters were:
# Data were exported into Microsoft
# The standard deviation (SD) of three
# Z’-factors were calculated
# 9. Determination of kinetic parameters […]
# in 50 mM HEPES buffer (pH 7.5).
# [2] = biological target: T2, human AspH (Homo sapiens, UniProt Q12797); test: SPE-MS AspH turnover assay in the absence of 2OG (2OG derivative as cosubstrate); conditions: 330 μM 2OG or 2OG derivative, 0.1 μM AspH, 2 μM hFX-CP101-119, 50 μM FAS, t = 15 min;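 also: percent conversion = hydroxylated cyclic peptide peak area relative to summed substrate plus product areas, taken from +2 charge state ion chromatograms by solid phase extraction MS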
# T2 sequence (Q12797 315-758): T1 sequence (Q12797 315-758)
# Procedure: AspH assays were performed as described in the ESI, ^† data are shown as the mean of three independent runs (n = 3; mean ± standard deviation, SD).
# AspH assays were performed as described in Section 9 of the Supporting Information using 0.1 μM AspH, 2 μM
# a positive control in the SPE-MS AspH turnover assays (Entry 1).
# dependent conversion of the AspH substrate hFX-CP101-119 (Supporting Figure S1d). %-Substrate conversion is
# AspH assays were performed as
# described in Section 9 of the Supporting Information using 0.1 μM AspH, 2 μM hFX-CP101-119, 50 μM FAS, 330
# AspH inhibition assays were incubated for 6 rather than 7 minutes before the enzyme reaction was
# stopped by the addition of 10%v/v aqueous formic acid.
# MS-analyses were performed using a RapidFire RF 365 high-throughput sampling robot (Agilent) attached to an
# iFunnel Agilent 6550 accurate mass quadrupole time-of-flight (Q-TOF) mass spectrometer operated in the positive
# ionization mode. Assay samples were aspirated under vacuum for 0.4 s and loaded onto a C4 solid phase extraction (SPE) cartridge. After loading, the C4 SPE cartridge was washed with 0.1%v/v aqueous formic acid to remove
# non-volatile buffer salts (5 s, 1.5 mL/min). The peptide was eluted from the SPE cartridge with 0.1%v/v aqueous
# formic acid in 85/15v/v acetonitrile/water into the mass spectrometer (5 s, 1.25 mL/min) and the SPE cartridge re-
# equilibrated with 0.1%v/v aqueous formic acid (1 s, 1.25 mL/min). The mass spectrometer parameters were:
# capillary voltage (4000 V), nozzle voltage (1000 V), fragmentor voltage (365 V), gas temperature (280°C), gas
# flow (13 L/min), sheath gas temperature (350°C), sheath gas flow (12 L/min). The m/z +2 charge states of the
# cyclic peptide (substrate) and the hydroxylated cyclic peptide (product) were used to extract ion chromatogram
# data, peak areas were integrated using RapidFire Integrator software (Agilent). Data were exported into Microsoft
# Excel and used to calculate the % conversion of the hydroxylation reaction using the equation: % conversion =
# 100 x (integral product cyclic peptide) / (integral substrate cyclic peptide + integral product cyclic peptide).
# Normalized dose-response curves (2,4-PDCA and DMSO controls) were obtained from the raw data by non-linear
# regression (GraphPad Prism 5) and used to determine IC50-values. The standard deviation (SD) of three
# independent IC50 determinations (n = 3) was calculated using GraphPad Prism 5. Z’-factors were calculated
# according to the cited literature using Microsoft Excel (Supporting Figure S3).14
# [3] = 50 nM His6-AspH315–758, 1.0 μM hFX-CP101–119, 3 μM 2OG, read-out: IC50 (inhibition of AspH)
# [4] = 50 nM His6-AspH315–758, 1.0 μM hFX-CP101–119, 3 μM 2OG
# [5] = 50 nM His6-AspH315-758, 1.0 μM hFX-CP101-119, read-out: IC50 (ESI Fig. S4)
# [6] = IC50 at 200 μM 2OG (ESI Table S1), assay concentration of 200 μM 2OG
# [7] = IC50 at 400 μM 2OG (ESI Table S1), assay concentration of 400 μM 2OG
# [8] = IC50 at 600 μM 2OG (ESI Table S1), assay concentration of 600 μM (0.6 mM) 2OG
SMILES,"IC50 [1, 3]",melting point,AspH-catalyzed substrate conversion (hydroxylation of hFX-CP101-119) [2],"IC50 (inhibition of AspH) [1, 4]",also measured
O=C(O)C(=O)c1ccc(C(=O)O)s1 [compound 38],~12.9 µM and 12.9 µM,> 285 °C (dec.),~15%,,
CCCC(CC(=O)C(=O)O)C(=O)O (centres unmarked) [compound 28],0.47 ± 0.08 µM,,< 1%,,
O=C(O)CC(CCCc1ccccc1)C(=O)C(=O)O (centres unmarked) [compound 20],~6.8 µM and 6.8 µM,> 220 °C (dec.),< 1%,,
CC(C)(C)CCC(CC(=O)C(=O)O)C(=O)O (centres unmarked) [compound 30],0.7 ± 0.11 µM,,< 1%,,
O=C(O)CC(Cc1ccc(F)cc1)C(=O)C(=O)O (centres unmarked) [compound 22],2.6 ± 0.8 µM,> 250 °C (dec.),< 1%,,
O=C(O)C(=O)[C@@H]1[C@@H](C(=O)O)[C@@H]2C=C[C@H]1C2 (racemic) [compound 36],~19.3 µM and 19.3 µM,,< 1%,,
Cc1cc(C)cc(CC(CC(=O)O)C(=O)C(=O)O)c1 (centres unmarked) [compound 25],4.7 ± 0.2 µM,,< 1%,,
O=C(O)C(=O)c1ccc(C(=O)O)cc1Br [compound 44],,> 300 °C (dec.),~20%,Inactive,
"O=C(O)CNC(=O)C(=O)O [NOG, N-oxalylglycine, reference compound]",~1 µM,,,,"IC50 [1, 5]: 0.99 ± 0.31 µM"
CC1(C)C(C(=O)O)C1C(=O)C(=O)O (centres unmarked) [compound 35],~5.2 µM and 5.2 µM,,< 1%,,
O=C(O)C(=O)C12CCC(C(=O)O)(CC1)CC2 [compound 47],,> 300 °C (dec.),~8%,did not inhibit,"IC50 (inhibition of AspH) ([1]; 50 nM His6-AspH315–758, 1.0 μM hFX-CP101–119, 3 μM 2OG, listed as C00030): Inactive"
O=C(O)CC(Cc1ccc(OC(F)(F)F)cc1)C(=O)C(=O)O (centres unmarked) [compound 23],6.3 ± 2.6 µM,> 260 °C (dec.),< 1%,,
O=C(O)C(=O)c1cscc1C(=O)O [compound 37],,,< 1%,did not inhibit,"IC50 (inhibition of AspH) ([1]; 50 nM His6-AspH315–758, 1.0 μM hFX-CP101–119, 3 μM 2OG, listed as C00032): Inactive"
COc1ccc(CC(CC(=O)O)C(=O)C(=O)O)cc1 (centres unmarked) [compound 24],3.6 ± 1.4 µM,> 260 °C (dec.),< 1%,,
"CC(CC(=O)C(=O)O)C(=O)O (centres unmarked) [compound 26, 4-methyl-2OG]",,,~10%,did not inhibit,"IC50 (inhibition of AspH) ([1]; 50 nM His6-AspH315–758, 1.0 μM hFX-CP101–119, 3 μM 2OG, listed as C00031): Inactive"
Cc1cc(C(=O)O)ccc1C(=O)C(=O)O [compound 46],,> 320 °C (dec.),~5%,Inactive,
"CCC(CC(=O)O)C(=O)C(=O)O (centres unmarked) [compound 17, 3-ethyl-2OG]",~1.2 µM and 1.2 µM,,< 1%,,"IC50 [1, 6]: 22.4 ± 3.2 µM; IC50 [1, 7]: 35.3 ± 9.9 µM; IC50 [1, 8]: 54.9 ± 10.8 µM"
CCCC(CC(=O)O)C(=O)C(=O)O (centres unmarked) [compound 18],~5.7 µM and 5.7 µM,,< 1%,,
CCC(CC(=O)C(=O)O)C(=O)O (centres unmarked) [compound 27],0.61 ± 0.09 µM,,< 1%,,
O=C(O)C(=O)c1ccc(C(=O)O)c(Br)c1 [compound 45],,,~8%,Inactive,
"CC(C)(NC(=O)C(=O)O)C(=O)O [compound 49, N-oxalyl-α-methylalanine]",~2.9 µM,,,,"IC50 [1, 5]: 2.9 ± 1.3 µM"
"O=C(O)C(=O)c1cccc(C(=O)O)c1 [compound 40, 3-carboxyphenylglyoxylic acid]",,,< 1%,did not inhibit,"IC50 (inhibition of AspH) ([1]; 50 nM His6-AspH315–758, 1.0 μM hFX-CP101–119, 3 μM 2OG, listed as C00009): Inactive"
O=C(O)C(=O)c1ccc(C(=O)O)c(F)c1 [compound 43],,> 260 °C (dec.),~8%,Inactive,
O=C(O)C(=O)CC(CCCc1ccccc1)C(=O)O (centres unmarked) [compound 31],0.25 ± 0.05 µM,> 220 °C (dec.),< 1%,,
CC(C)CC(CC(=O)C(=O)O)C(=O)O (centres unmarked) [compound 29],0.51 ± 0.12 µM,,< 1%,,"IC50 [1, 6]: 10.8 ± 2.7 µM; IC50 [1, 7]: 16.8 ± 2.5 µM; IC50 [1, 8]: 26.9 ± 7 µM"
O=C(O)C(=O)CC(Cc1ccc2ccccc2c1)C(=O)O (centres unmarked) [compound 33],0.17 ± 0.03 µM,> 220 °C (dec.),< 1%,,"IC50 [1, 6]: 2.5 ± 0.4 µM; IC50 [1, 7]: 3.1 ± 0.3 µM; IC50 [1, 8]: 5.6 µM and ~5.6 µM"
O=C(O)C(=O)C1(C(=O)O)CC1 [compound 48],~3.3 µM and 3.3 µM,,< 1%,,
O=C(O)CC(Cc1ccccc1)C(=O)C(=O)O (centres unmarked) [compound 21],~1.6 µM and 1.6 µM,> 250 °C (dec.),< 1%,,
CC(C)(C)CCC(CC(=O)O)C(=O)C(=O)O (centres unmarked) [compound 19],~48.2 µM and 48.2 µM,,< 1%,,
O=C(O)C(=O)c1ccccc1C(=O)O [compound 39],,,< 1%,did not inhibit,"IC50 (inhibition of AspH) ([1]; 50 nM His6-AspH315–758, 1.0 μM hFX-CP101–119, 3 μM 2OG, listed as C00006): Inactive"
